According to patent publication US5527832A, “Antiinflammatory and analgesic transdermal gel” (priority 1994, dated 1996):

Experiments:
[1] = Gastric ulcer formation (Experiment 4); format: in vivo, male Sprague-Dawley rats; details: 10 mg/kg
Description: Male Sprague-Dawley rats weighing around 200 g were used as the test animals. […] As a reference, the rats of the control group were administrated ketoprofen orally as a suspension in physiological saline at the dose of 10 mg/kg. Six hours after the administration, the rats were sacrificed and ulcer formation in the stomach was scored as follows: 0; normal, 1; reddened mucosa, 2; one to four small ulcer (smaller than 2 mm in diameter). 3; more than four small ulcer or one large ulcer (larger than 2 mm in diameter), 4; more than one large ulcer. The score of two or higher was regarded as ulcer formation.

[2] = postdose, oral administration to rats; cited from earlier work

Row | SMILES | Average ulcer score ([1]; rat, in vivo, po) | No. of rat ulcer is produced ([1]; rat, in vivo, po) | No. of rat ulcer is produced ([1]; oral, 6 h after administration) | Average ulcer score ([1]; oral, 6 h after administration, score 0-4) | Time of maximum concentration of ketoprofen [2]
1 | CC(C(=O)O)c1ccc(-c2ccccc2)c(F)c1 (stereo not shown) [flurbiprofen] | 2.46 | 5/6 |  |  | 
2 | CC(C)Cc1ccc(C(C)C(=O)O)cc1 (stereo not shown) [ibuprofen] | 2.53 | 6/6 |  |  | 
3 | CC(C(=O)O)c1cccc(C(=O)c2ccccc2)c1 (stereo not shown) [ketoprofen] |  |  | 6/6 | 2.91 | 0.25 to 0.5 h
